The compounds below were run on recombinant NL-Rluc virus (assay: Inhibition of HIV replication (NL-RLuc pseudotype virus, luciferase)). Settings: Human immunodeficiency virus 1, read-out: Activity (EC50).
Type: cell-based
`CC1(C)OCCn2c1nc(-c1ncc(Cc3ccc(F)cc3)[nH]1)c(O)c2=O` [Example 1, 2-(5-(4-Fluorobenzyl)-1H-imidazol-2-yl)-3-hydroxy-9,9-dimethyl-6,7-dihydropyrimido[2,1-c][1,4]oxazin-4(9H)-one] gave an EC50 of 0.007 µM.
`Cn1c(Cc2ccc(F)cc2)cnc1-c1nc2n(c(=O)c1O)CCOC2(C)C` [Example 2, 2-(5-(4-Fluorobenzyl)-1-methyl-1H-imidazol-2-yl)-3-hydroxy-9,9-dimethyl-6,7-dihydropyrimido[2,1-c][1,4]oxazin-4(9H)-one] was tested, and the EC50 was 0.01 µM.
In the case of `CC1(C)OCCn2c1nc(-c1cn(Cc3ccc(F)cc3)cn1)c(O)c2=O` [Example 3, 2-(1-(4-Fluorobenzyl)-1H-imidazol-4-yl)-3-hydroxy-9,9-dimethyl-6,7-dihydropyrimido[2,1-c][1,4]oxazin-4(9H)-one], the EC50 is reported as 0.005 µM.
`CC1(C)OCCn2c1nc(-c1nnc(Cc3ccc(F)cc3)[nH]1)c(O)c2=O` [Example 4, 2-(5-(4-Fluorobenzyl)-4H-1,2,4-triazol-3-yl)-3-hydroxy-9,9-dimethyl-6,7-dihydropyrimido[2,1-c][1,4]oxazin-4(9H)-one] gave an EC50 of 0.051 µM.
Work on `CC1(C)OCCn2c1nc(-c1ncn(Cc3ccc(F)cc3)n1)c(O)c2=O` [Example 5, 2-(1-(4-Fluorobenzyl)-1H-1,2,4-triazol-3-yl)-3-hydroxy-9,9-dimethyl-6,7-dihydropyrimido[2,1-c][1,4]oxazin-4(9H)-one] yielded an EC50 of 0.007 µM.
With `Cn1c(Cc2ccc(F)cc2)nnc1-c1nc2n(c(=O)c1O)CCOC2(C)C` [Example 6, 2-(5-(4-Fluorobenzyl)-4-methyl-4H-1,2,4-triazol-3-yl)-3-hydroxy-9,9-dimethyl-6,7-dihydropyrimido[2,1-c][1,4]oxazin-4(9H)-one] the EC50 was 0.141 µM.
In the case of `CCOc1nc(-c2nc(Cc3ccc(F)cc3)no2)c(O)c(=O)n1C` [Example 7, 2-Ethoxy-6-(3-(4-fluorobenzyl)-1,2,4-oxadiazol-5-yl)-5-hydroxy-3-methylpyrimidin-4(3H)-one], the EC50 is reported as 31 µM.
`Cn1c(C2CCCC2)nc(-c2nc(Cc3ccc(F)cc3)no2)c(O)c1=O` [Example 9, 2-Cyclopentyl-6-(3-(4-fluorobenzyl)-1,2,4-oxadiazol-5-yl)-5-hydroxy-3-methylpyrimidin-4(3H)-one] was tested, and the EC50 was 22 µM.
`CC1(C)OCCn2c1nc(-c1ncc(Cc3ccc(F)cc3)s1)c(O)c2=O` [Example 11, 2-(5-(4-Fluorobenzyl)thiazol-2-yl)-3-hydroxy-9,9-dimethyl-6,7-dihydropyrimido[2,1-c][1,4]oxazin-4(9H)-one] gave an EC50 of 0.014 µM.
For `CC1(C)OCCn2c1nc(-c1nnc(Cc3ccc(F)cc3)o1)c(O)c2=O` [Example 12, 2-(5-(4-Fluorobenzyl)-1,3,4-oxadiazol-2-yl)-3-hydroxy-9,9-dimethyl-6,7-dihydropyrimido[2,1-c][1,4]oxazin-4(9H)-one], the EC50 was 0.008 µM.
